From patent publication US20080171657A1, “5,6-Dialkyl-7-Aminoazolopyrimidines, Their Preparation and Their Use for Controlling Harmful Fungi, and Compositions Comprising These Compounds” (Basf Aktiengesellschaft, priority 2005, published 2008)

Legend:
Puccinia recondita = experiment: Protective activity against Puccinia recondita on wheat (brown rust of wheat); format: in vivo; settings: comparison to closest prior art; concentration not given; untreated 90
Protocol: The active compounds were prepared as a stock solution comprising 25 mg of active compound which was made up to 10 ml using a mixture of acetone and/or DMSO and the emulsifier Uniperol® EL (wetting agent having emulsifying and dispersing action based on ethoxylated alkylphenols) in a volume ratio of solvent/emulsifier of 99/1. The mixture was then made up to 100 ml with water. This stock solution was diluted with the solvent/emulsifier/water mixture described to the concentration of active compound stated below. Protective Activity Against Puccinia recondita on Wheat (brown Rust of Wheat) Leaves of potted wheat seedlings of the cultivar “Kanzler” were sprayed to runoff point with an aqueous suspension having the concentration of active compounds stated below. The next day, the treated plants were inoculated with a spore suspension of brown rust of wheat (Puccinia recondite). The plants were then placed in a chamber with high atmospheric humidity (90 to 95%) at 20 to 22° C. for 24 hours. During this time, the spores germinated and the germ tubes penetrated into the leaf tissue. The next day, the test plants were returned to the greenhouse and cultivated at temperatures between 20 and 22° C. and 65 to 70% relative atmospheric humidity for a further 7 days. The extent of the rust fungus development on the leaves was then determined visually.

Compound | Infection in % (Puccinia recondita) [%] | melting point [°C]
CCCCCCc1c(CCC)nc2cc(C)nn2c1N [I-1] | 20 | 132 to 134
CCCCCc1c(CCC)nc2cc(C)nn2c1N [compound 24, reference compound] | 40 | 
